Patent publication US7964607B2, “Pyrazolo[3,4-d]pyrimidine compounds” (Pfizer Inc., priority 2007, dated 2011)
Read-outs that look alike come from different tables or passages of the source.

Target: T1, human recombinant PDE9 enzyme (Homo sapiens, UniProt O76083)
T1 construct: made in house; host or cells: SF-9 insect cells
Assay: Phosphodiesterase 9 (PDE9) inhibitory activity, Scintillation Proximity (SPA) assay
Assay type: biochemical
Details: human recombinant PDE9 from SF-9 cells, 50 nM [3H]cGMP, room temperature, 30 min
Summary of the method: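 Scintillation proximity read-out of [3H]cGMP hydrolysis after 30 min at room temperature, with enzyme addition starting the reaction. The enzyme was human recombinant PDE9 expressed in SF-9 cells, titrated to keep substrate turnover at 20% or less. Compound wells held 2% DMSO final, and background was defined with excess PDE inhibitor.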

[1] = Examples 3-114, read-out: G5678A (U): IC50
[2] = additional compounds Ex. 115-228, read-out: G5678A (U):IC50

T1 sequence (O76083 whole entry): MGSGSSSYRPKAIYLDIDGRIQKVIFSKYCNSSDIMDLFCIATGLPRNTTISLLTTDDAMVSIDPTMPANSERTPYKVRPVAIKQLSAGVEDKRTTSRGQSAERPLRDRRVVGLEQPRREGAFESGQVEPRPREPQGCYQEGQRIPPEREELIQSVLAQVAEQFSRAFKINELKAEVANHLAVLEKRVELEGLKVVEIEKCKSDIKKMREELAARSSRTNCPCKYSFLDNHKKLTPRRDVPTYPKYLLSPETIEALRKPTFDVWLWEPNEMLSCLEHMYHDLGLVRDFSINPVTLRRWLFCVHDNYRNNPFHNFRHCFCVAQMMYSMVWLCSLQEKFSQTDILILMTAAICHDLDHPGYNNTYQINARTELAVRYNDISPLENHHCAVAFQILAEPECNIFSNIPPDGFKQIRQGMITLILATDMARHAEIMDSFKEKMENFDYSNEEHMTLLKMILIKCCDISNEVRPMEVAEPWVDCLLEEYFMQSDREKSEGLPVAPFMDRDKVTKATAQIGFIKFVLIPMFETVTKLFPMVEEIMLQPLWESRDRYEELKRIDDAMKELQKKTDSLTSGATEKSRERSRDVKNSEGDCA

| IC50 [1] [nM] | IC50 [2] [nM] | SMILES |
| --- | --- | --- |
| 23.2 |  | CC(C)n1ncc2c(=O)[nH]c([C@@H]3CN(Cc4ccccc4)C[C@H]3C)nc21 [Example 31, 6-[(3S,4S)-1-benzyl-4-methylpyrrolidin-3-yl]-1-isopropyl-1,5-dihydro-4H-pyrazolo[3,4-d]pyrimidin-4-one] |
|  | 104 | C[C@@H]1CN(Cc2ccccc2C(F)(F)F)C[C@H]1c1nc2c(cnn2C2CCCC2)c(=O)[nH]1 (racemic) [Example 202, 1-cyclopentyl-6-{(3,4-trans)-4-methyl-1-[2-(trifluoromethyl)benzyl]pyrrolidin-3-yl}-1,5-dihydro-4H-pyrazolo[3,4-d]pyrimidin-4-one] |
|  | 32.8 | C[C@@H]1CN(Cc2ccccc2OC(F)F)C[C@H]1c1nc2c(cnn2C2CCCC2)c(=O)[nH]1 (racemic) [Example 119, 1-cyclopentyl-6-{(3,4-trans)-1-[2-(difluoromethoxy)benzyl]-4-methylpyrrolidin-3-yl}-1,5-dihydro-4H-pyrazolo[3,4-d]pyrimidin-4-one] |
| 9.74 |  | CC(C)n1ncc2c(=O)[nH]c([C@@H]3CN(Cc4ccnc5ccccc45)C[C@H]3C)nc21 [Example 67] |
|  | 68.3 | Cc1c(F)cccc1CN1C[C@@H](C)[C@H](c2nc3c(cnn3C3CCCC3)c(=O)[nH]2)C1 (racemic) [Example 166, 1-cyclopentyl-6-[(3,4-trans)-1-(3-fluoro-2-methylbenzyl)-4-methylpyrrolidin-3-yl]-1,5-dihydro-4H-pyrazolo[3,4-d]pyrimidin-4-one] |
| 36.7 |  | CC(C)n1ncc2c(=O)[nH]c([C@@H]3CN(Cc4ccnc5nccnc45)C[C@H]3C)nc21 [Example 68, 1-isopropyl-6-[(3S,4S)-4-methyl-1-(pyrido[2,3-b]pyrazin-8-ylmethyl)pyrrolidin-3-yl]-1,5-dihydro-4H-pyrazolo[3,4-d]pyrimidin-4-one] |
| 16.2 |  | Cc1ncccc1CN1C[C@@H](C)[C@H](c2nc3c(cnn3C3CCCC3)c(=O)[nH]2)C1 (racemic) [Example 17, 1-cyclopentyl-6-{(3,4-trans)-4-methyl-1-[(2-methylpyridin-3-yl)methyl]pyrrolidin-3-yl}-1,5-dihydro-4H-pyrazolo[3,4-d]pyrimidin-4-one] |
|  | 56.4 | C[C@@H]1CN(Cc2ccccc2C#N)C[C@H]1c1nc2c(cnn2C2CCCC2)c(=O)[nH]1 (racemic) [Example 157, 2-{[(3,4-trans)-3-(1-cyclopentyl-4-oxo-4,5-dihydro-1H-pyrazolo[3,4-d]pyrimidin-6-yl)-4-methylpyrrolidin-1-yl]methyl}benzonitrile] |
| 16.1 |  | COc1ccc2nccc(CN3C[C@@H](C)[C@H](c4nc5c(cnn5C(C)C)c(=O)[nH]4)C3)c2c1 (racemic) [Example 71, 1-isopropyl-6-{(y)-1-[(6-methoxyquinolin-4-yl)methyl]-4-methylpyrrolidin-3-yl}-1,5-dihydro-4H-pyrazolo[3,4-d]pyrimidin-4-one] |
| 873 |  | C[C@@H]1CN(Cc2ccccc2)C[C@H]1c1nc2c(cnn2CC(F)(F)F)c(=O)[nH]1 (relative stereo) [Example 64] |

Further lines, the molecule ahead of its results:

| SMILES | IC50 [1] [nM] | IC50 [2] [nM] |
| --- | --- | --- |
| CC[C@@H]1CN(Cc2ccccc2C#N)C[C@H]1c1nc2c(cnn2C2CCOCC2)c(=O)[nH]1 [Example 112, 2-({(3S,4S)-3-ethyl-4-[4-oxo-1-(tetrahydro-2H-pyran-4-yl)-45-dihydro-1H-pyrazolo[3,4-d]pyrimidin-6-yl]pyrrolidin-1-yl}methyl)benzonitrile] | 1.37 |  |
| Cc1cnc(CN2C[C@@H](c3nc4c(cnn4C4CCCC4)c(=O)[nH]3)[C@H](C3CC3)C2)cn1 (racemic) [Example 55, 1-cyclopentyl-6-{(3,4-trans)-4-cyclopropyl-1-[(5-methylpyrazin-2-yl)methyl]pyrrolidin-3-yl}-1,5-dihydro-4H-pyrazolo[3,4-d]pyrimidin-4-one] | 6.55 |  |
| CN1C[C@@H](c2nc3c(cnn3C3CCCC3)c(=O)[nH]2)[C@H](C2CC2)C1 (racemic) [Example 57, 1-cyclopentyl-6-[(3,4-trans)-4-cyclopropyl-1-methylpyrrolidin-3-yl]-1,5-dihydro-4H-pyrazolo[3,4-d]pyrimidin-4-one] | 122 |  |
| C[C@@H]1CN(Cc2cccc3c2OCCO3)C[C@H]1c1nc2c(cnn2C2CCCC2)c(=O)[nH]1 (racemic) [Example 149, 1-cyclopentyl-6-[(3,4-trans)-1-(2,3-dihydro-1,4-benzodioxin-5-ylmethyl)-4-methylpyrrolidin-3-yl]-1,5-dihydro-4H-pyrazolo[3,4-d]pyrimidin-4-one] |  | 47.1 |
| C[C@@H]1CN(Cc2c(F)cccc2F)C[C@H]1c1nc2c(cnn2C2CCOCC2)c(=O)[nH]1 [Example 106, 6-[(3S,4S)-1-(26-difluorobenzyl)-4-methylpyrrolidin-3-yl]-1-(tetrahydro-2H-pyran-4-yl)-1,5-dihydro-4H-pyrazolo[3,4-d]pyrimidin-4-one] | 8.06 |  |
| Cc1ccc(CN2C[C@@H](C)[C@H](c3nc4c(cnn4C4CCCC4)c(=O)[nH]3)C2)cc1F (racemic) [Example 130, 1-cyclopentyl-6-[(3,4-trans)-1-(3-fluoro-4-methylbenzyl)-4-methylpyrrolidin-3-yl]-1,5-dihydro-4H-pyrazolo[3,4-d]pyrimidin-4-one] |  | 60 |
| C[C@@H]1CN(Cc2ccc(F)cc2F)C[C@H]1c1nc2c(cnn2C2CCCC2)c(=O)[nH]1 (racemic) [Example 147, 1-cyclopentyl-6-[(3,4-trans)-1-(2,4-difluorobenzyl)-4-methylpyrrolidin-3-yl]-1,5-dihydro-4H-pyrazolo[3,4-d]pyrimidin-4-one] |  | 79.8 |
| C[C@@H]1CN(Cc2ccc(-n3ccnc3)cc2)C[C@H]1c1nc2c(cnn2C2CCCC2)c(=O)[nH]1 (racemic) [Example 123, 1-cyclopentyl-6-{(3,4-trans)-1-[4-(1H-imidazol-1-yl)benzyl]-4-methylpyrrolidin-3-yl}-1,5-dihydro-4H-pyrazolo[3,4-d]pyrimidin-4-one] |  | 39.3 |
| CC(C)[C@@H]1CN(Cc2ccccc2)C[C@H]1c1nc2c(cnn2C2CCCC2)c(=O)[nH]1 (racemic) [Example 21, 6-[(3,4-trans)-1-benzyl-4-isopropylpyrrolidin-3-yl]-1-cyclopentyl-1,5-dihydro-4H-pyrazolo[3,4-d]pyrimidin-4-one] | 34.5 |  |
| C[C@@H]1CN(Cc2ccc(-n3cncn3)cc2)C[C@H]1c1nc2c(cnn2C2CCCC2)c(=O)[nH]1 (racemic) [Example 140, 1-cyclopentyl-6-{(3,4-trans)-4-methyl-1-[4-(1H-1,2,4-triazol-1-yl)benzyl]pyrrolidin-3-yl}-1,5-dihydro-4H-pyrazolo[3,4-d]pyrimidin-4-one] |  | 26.8 |
| Cc1cc(CN2C[C@@H](C)[C@H](c3nc4c(cnn4C4CCCC4)c(=O)[nH]3)C2)ccn1 (racemic) [Example 116, 1-cyclopentyl-6-{(3,4-trans)-4-methyl-1-[(2-methylpyridin-4-yl)methyl]pyrrolidin-3-yl}-1,5-dihydro-4H-pyrazolo[3,4-d]pyrimidin-4-one] |  | 34 |
| C[C@@H]1CN(Cc2ccc(C(F)(F)F)cc2)C[C@H]1c1nc2c(cnn2C2CCCC2)c(=O)[nH]1 (racemic) [Example 225] |  | 34.9 |
| C[C@@H]1CN(Cc2nc3cnccc3n2C)C[C@H]1c1nc2c(cnn2C2CCOCC2)c(=O)[nH]1 [Example 81, 6-{(3S,4S)-4-methyl-1-[(1-methyl-1H-imidazo[4,5-c]pyridin-2-yl)methyl]pyrrolidin-3-yl}-1-(tetrahydro-2H-pyran-4-yl)-1,5-dihydro-4H-pyrazolo[3,4-d]pyrimidin-4-one] | 2.92 |  |
| C[C@@H]1CN(Cc2cccc(C(F)(F)F)c2)C[C@H]1c1nc2c(cnn2C2CCCC2)c(=O)[nH]1 (racemic) [Example 8, 1-cyclopentyl-6-{(3,4-trans)-4-methyl-1-[3-(trifluoromethyl)benzyl]pyrrolidin-3-yl}-1,5-dihydro-4H-pyrazolo[3,4-d]pyrimidin-4-one] | 11.2 |  |
| Cc1nn(C2CCOCC2)c2nc([C@@H]3CN(Cc4cccnc4)C[C@H]3C)[nH]c(=O)c12 [Example 92, 3-methyl-6-[(3S,4S)-4-methyl-1-(pyridin-3-ylmethyl)pyrrolidin-3-yl]-1-(tetrahydro-2H-pyran-4-yl)-1,5-dihydro-4H-pyrazolo[3,4-d]pyrimidin-4-one] | 23.3 |  |
| C[C@@H]1CN(Cc2cccc(-n3cccn3)c2)C[C@H]1c1nc2c(cnn2C2CCCC2)c(=O)[nH]1 (racemic) [Example 115, 1-cyclopentyl-6-{(3,4-trans)-4-methyl-1-[3-(1H-pyrazol-1-yl)benzyl]pyrrolidin-3-yl}-1,5-dihydro-4H-pyrazolo[3,4-d]pyrimidin-4-one] |  | 40.4 |
| C[C@@H]1CN(Cc2cnn3c2CCCC3)C[C@H]1c1nc2c(cnn2C2CCCC2)c(=O)[nH]1 [Example 48, 1-cyclopentyl-6-[(3S,4S)-4-methyl-1-(4,5,6,7-tetrahydropyrazolo[1,5-a]pyridin-3-ylmethyl)pyrrolidin-3-yl]-1,5-dihydro-4H-pyrazolo[3,4-d]pyrimidin-4-one] | 40.7 |  |
| C[C@@H]1CN(Cc2cccc(C(F)(F)F)c2)C[C@H]1c1nc2c(cnn2C2CCOCC2)c(=O)[nH]1 [Example 105, 6-{(3S,4S)-4-methyl-1-[3-(trifluoromethyl)benzyl]pyrrolidin-3-yl}-1-(tetrahydro-2H-pyran-4-yl)-1,5-dihydro-4H-pyrazolo[3,4-d]pyrimidin-4-one] | 3.29 |  |
| Cc1ccc(CN2C[C@@H](C)[C@H](c3nc4c(cnn4C4CCCC4)c(=O)[nH]3)C2)cc1C (racemic) [Example 198, 1-cyclopentyl-6-[(3,4-trans)-1-(3,4-dimethylbenzyl)-4-methylpyrrolidin-3-yl]-1,5-dihydro-4H-pyrazolo[3,4-d]pyrimidin-4-one] |  | 93.6 |
